Results from publication PMC9516332 (Frontiers in Oncology, 2022).
Like-named read-outs stand apart in the source and are kept apart here.

Legend:
AP-1060 (ETV6-NTRK3) = assay: Cell viability assay; settings: read-out: IC50 in cell proliferation assay
134 cancer cell lines = assay: Cell viability assay (ATPlite, 72 hours), IC50 on cancer cell line panel

C[C@H]1Oc2cc(cnc2N)-c2c(nn(C)c2C#N)CN(C)C(=O)c2ccc(F)cc21 [lorlatinib]
IC50 (AP-1060 (ETV6-NTRK3)): 10.7 µM | IC50 (134 cancer cell lines; HEC-6, read-out: IC50 in cell proliferation assay): > 31.6 µM | IC50 (134 cancer cell lines; Homo sapiens, 769-P, read-out: IC50 in cell proliferation assay): > 31.6 µM | IC50 (134 cancer cell lines; Homo sapiens, 786-0, read-out: IC50 in cell proliferation assay): > 31.6 µM | IC50 (134 cancer cell lines; Homo sapiens, A 172, read-out: IC50 in cell proliferation assay): > 31.6 µM | IC50 (134 cancer cell lines; Homo sapiens, A204, read-out: IC50 in cell proliferation assay): > 31.6 µM | IC50 (134 cancer cell lines; Homo sapiens, A498, read-out: IC50 in cell proliferation assay): > 31.6 µM | IC50 (134 cancer cell lines; Homo sapiens, A549, read-out: IC50 in cell proliferation assay): 2.3 µM | IC50 (134 cancer cell lines; Homo sapiens, A704, read-out: IC50 in cell proliferation assay): > 31.6 µM | IC50 (134 cancer cell lines; Homo sapiens, A-375, read-out: IC50 in cell proliferation assay): 18.8 µM | IC50 (134 cancer cell lines; Homo sapiens, A-427, read-out: IC50 in cell proliferation assay): 27.4 µM | IC50 (134 cancer cell lines; Homo sapiens, ACHN, read-out: IC50 in cell proliferation assay): > 31.6 µM | IC50 (134 cancer cell lines; Homo sapiens, AN3-CA, read-out: IC50 in cell proliferation assay): > 31.6 µM | IC50 (134 cancer cell lines; Homo sapiens, ASPC1, read-out: IC50 in cell proliferation assay): 28.2 µM | IC50 (134 cancer cell lines; Homo sapiens, AU565, read-out: IC50 in cell proliferation assay): > 31.6 µM | IC50 (134 cancer cell lines; Homo sapiens, BT-20, read-out: IC50 in cell proliferation assay): > 31.6 µM | IC50 (134 cancer cell lines; Homo sapiens, BT-474, read-out: IC50 in cell proliferation assay): > 31.6 µM | IC50 (134 cancer cell lines; Homo sapiens, BT-549, read-out: IC50 in cell proliferation assay): > 31.6 µM | IC50 (134 cancer cell lines; Homo sapiens, BXPC-3, read-out: IC50 in cell proliferation assay): 0.049 µM | IC50 (134 cancer cell lines; Homo sapiens, C-33-A, read-out: IC50 in cell proliferation assay): > 31.6 µM | IC50 (134 cancer cell lines; Homo sapiens, CAL-27, read-out: IC50 in cell proliferation assay): > 31.6 µM | IC50 (134 cancer cell lines; Homo sapiens, CCF-STTG1, read-out: IC50 in cell proliferation assay): > 31.6 µM | IC50 (134 cancer cell lines; Homo sapiens, CCRF-CEM, read-out: IC50 in cell proliferation assay): > 31.6 µM | IC50 (134 cancer cell lines; Homo sapiens, COLO 205, read-out: IC50 in cell proliferation assay): 11.9 µM | IC50 (134 cancer cell lines; Homo sapiens, COLO-829, read-out: IC50 in cell proliferation assay): > 31.6 µM | IC50 (134 cancer cell lines; Homo sapiens, DLD-1, read-out: IC50 in cell proliferation assay): > 31.6 µM | IC50 (134 cancer cell lines; Homo sapiens, DU-145, read-out: IC50 in cell proliferation assay): 25.9 µM | IC50 (134 cancer cell lines; Homo sapiens, DU-4475, read-out: IC50 in cell proliferation assay): 25.9 µM | IC50 (134 cancer cell lines; Homo sapiens, Daoy, read-out: IC50 in cell proliferation assay): > 31.6 µM | IC50 (134 cancer cell lines; Homo sapiens, DoTc2-4510, read-out: IC50 in cell proliferation assay): 0.024 µM | IC50 (134 cancer cell lines; Homo sapiens, EOL1, read-out: IC50 in cell proliferation assay): 9.05 µM | IC50 (134 cancer cell lines; Homo sapiens, FaDu, read-out: IC50 in cell proliferation assay): > 31.6 µM | IC50 (134 cancer cell lines; Homo sapiens, G-361, read-out: IC50 in cell proliferation assay): > 31.6 µM | IC50 (134 cancer cell lines; Homo sapiens, HCC827, read-out: IC50 in cell proliferation assay): 17.1 µM | IC50 (134 cancer cell lines; Homo sapiens, HCC4006, read-out: IC50 in cell proliferation assay): 17.8 µM | IC50 (134 cancer cell lines; Homo sapiens, HCT-15, read-out: IC50 in cell proliferation assay): > 31.6 µM | IC50 (134 cancer cell lines; Homo sapiens, HCT-116, read-out: IC50 in cell proliferation assay): 23.8 µM | IC50 (134 cancer cell lines; Homo sapiens, HEC-1, read-out: IC50 in cell proliferation assay): 9.24 µM | IC50 (134 cancer cell lines; Homo sapiens, HEC-1B, read-out: IC50 in cell proliferation assay): > 31.6 µM | IC50 (134 cancer cell lines; Homo sapiens, HL-60, read-out: IC50 in cell proliferation assay): 28.1 µM | IC50 (134 cancer cell lines; Homo sapiens, HT, read-out: IC50 in cell proliferation assay): > 31.6 µM | IC50 (134 cancer cell lines; Homo sapiens, HT-1080, read-out: IC50 in cell proliferation assay): > 31.6 µM | IC50 (134 cancer cell lines; Homo sapiens, Hs746T, read-out: IC50 in cell proliferation assay): 9.43 µM | IC50 (134 cancer cell lines; Homo sapiens, Hs-578T, read-out: IC50 in cell proliferation assay): > 31.6 µM | IC50 (134 cancer cell lines; Homo sapiens, HuTu80, read-out: IC50 in cell proliferation assay): 7.5 µM | IC50 (134 cancer cell lines; Homo sapiens, J82, read-out: IC50 in cell proliferation assay): > 31.6 µM | IC50 (134 cancer cell lines; Homo sapiens, Jurkat E6.1, read-out: IC50 in cell proliferation assay): > 31.6 µM | IC50 (134 cancer cell lines; Homo sapiens, K562, read-out: IC50 in cell proliferation assay): 9.61 µM | IC50 (134 cancer cell lines; Homo sapiens, KATO III, read-out: IC50 in cell proliferation assay): > 31.6 µM | IC50 (134 cancer cell lines; Homo sapiens, KG-1, read-out: IC50 in cell proliferation assay): 9.21 µM | IC50 (134 cancer cell lines; Homo sapiens, KLE, read-out: IC50 in cell proliferation assay): > 31.6 µM | IC50 (134 cancer cell lines; Homo sapiens, KMS-11, read-out: IC50 in cell proliferation assay): 17.7 µM | IC50 (134 cancer cell lines; Homo sapiens, KU812, read-out: IC50 in cell proliferation assay): > 31.6 µM | IC50 (134 cancer cell lines; Homo sapiens, Kasumi 1, read-out: IC50 in cell proliferation assay): > 31.6 µM | IC50 (134 cancer cell lines; Homo sapiens, LC-2-ad, read-out: IC50 in cell proliferation assay): 20.4 µM | IC50 (134 cancer cell lines; Homo sapiens, LNCaP-Clone-FGC, read-out: IC50 in cell proliferation assay): > 31.6 µM | IC50 (134 cancer cell lines; Homo sapiens, LS174T, read-out: IC50 in cell proliferation assay): 14.2 µM | IC50 (134 cancer cell lines; Homo sapiens, LS-411N, read-out: IC50 in cell proliferation assay): 23.6 µM | IC50 (134 cancer cell lines; Homo sapiens, LoVo, read-out: IC50 in cell proliferation assay): > 31.6 µM | IC50 (134 cancer cell lines; Homo sapiens, MCF7, read-out: IC50 in cell proliferation assay): 17 µM | IC50 (134 cancer cell lines; Homo sapiens, MDA-MB-231, read-out: IC50 in cell proliferation assay): > 31.6 µM | IC50 (134 cancer cell lines; Homo sapiens, MDA-MB-453, read-out: IC50 in cell proliferation assay): > 31.6 µM | IC50 (134 cancer cell lines; Homo sapiens, MDA-MB-468, read-out: IC50 in cell proliferation assay): > 31.6 µM | IC50 (134 cancer cell lines; Homo sapiens, MG-63, read-out: IC50 in cell proliferation assay): 8.74 µM | IC50 (134 cancer cell lines; Homo sapiens, MIA PaCa-2, read-out: IC50 in cell proliferation assay): > 31.6 µM | IC50 (134 cancer cell lines; Homo sapiens, MKN-45, read-out: IC50 in cell proliferation assay): > 31.6 µM | IC50 (134 cancer cell lines; Homo sapiens, MOLM-13, read-out: IC50 in cell proliferation assay): 21.1 µM | IC50 (134 cancer cell lines; Homo sapiens, MOLT-4, read-out: IC50 in cell proliferation assay): 6.72 µM | IC50 (134 cancer cell lines; Homo sapiens, MV4-11, read-out: IC50 in cell proliferation assay): 15.6 µM | IC50 (134 cancer cell lines; Homo sapiens, MeWo, read-out: IC50 in cell proliferation assay): > 31.6 µM | IC50 (134 cancer cell lines; Homo sapiens, NCCIT, read-out: IC50 in cell proliferation assay): > 31.6 µM | IC50 (134 cancer cell lines; Homo sapiens, NCI-H82, read-out: IC50 in cell proliferation assay): 6.06 µM | IC50 (134 cancer cell lines; Homo sapiens, NCI-H460, read-out: IC50 in cell proliferation assay): 18.4 µM | IC50 (134 cancer cell lines; Homo sapiens, NCI-H661, read-out: IC50 in cell proliferation assay): 6.73 µM | IC50 (134 cancer cell lines; Homo sapiens, NCI-H716, read-out: IC50 in cell proliferation assay): 9.52 µM | IC50 (134 cancer cell lines; Homo sapiens, NCI-H1650, read-out: IC50 in cell proliferation assay): 23.9 µM | IC50 (134 cancer cell lines; Homo sapiens, NCI-H1975, read-out: IC50 in cell proliferation assay): 9.89 µM | IC50 (134 cancer cell lines; Homo sapiens, NCI-H2228, read-out: IC50 in cell proliferation assay): 0.000918 µM | IC50 (134 cancer cell lines; Homo sapiens, OVCAR-3, read-out: IC50 in cell proliferation assay): > 31.6 µM | IC50 (134 cancer cell lines; Homo sapiens, PFSK-1, read-out: IC50 in cell proliferation assay): 7.69 µM | IC50 (134 cancer cell lines; Homo sapiens, RL95-2, read-out: IC50 in cell proliferation assay): 0.035 µM | IC50 (134 cancer cell lines; Homo sapiens, RPMI-7951, read-out: IC50 in cell proliferation assay): 0.818 µM | IC50 (134 cancer cell lines; Homo sapiens, RS4-11, read-out: IC50 in cell proliferation assay): 11.2 µM | IC50 (134 cancer cell lines; Homo sapiens, Rec1, read-out: IC50 in cell proliferation assay): 8.26 µM | IC50 (134 cancer cell lines; Homo sapiens, SHP77, read-out: IC50 in cell proliferation assay): > 31.6 µM | IC50 (134 cancer cell lines; Homo sapiens, SK-BR-3, read-out: IC50 in cell proliferation assay): > 31.6 µM | IC50 (134 cancer cell lines; Homo sapiens, SK-N-AS, read-out: IC50 in cell proliferation assay): > 31.6 µM | IC50 (134 cancer cell lines; Homo sapiens, SK-N-FI, read-out: IC50 in cell proliferation assay): 21.5 µM | IC50 (134 cancer cell lines; Homo sapiens, SK-N-MC, read-out: IC50 in cell proliferation assay): 6.17 µM | IC50 (134 cancer cell lines; Homo sapiens, SK-N-SH, read-out: IC50 in cell proliferation assay): 5.69 µM | IC50 (134 cancer cell lines; Homo sapiens, SNU-5, read-out: IC50 in cell proliferation assay): > 31.6 µM | IC50 (134 cancer cell lines; Homo sapiens, SNU-16, read-out: IC50 in cell proliferation assay): 31.5 µM | IC50 (134 cancer cell lines; Homo sapiens, SNU-C2B, read-out: IC50 in cell proliferation assay): > 31.6 µM | IC50 (134 cancer cell lines; Homo sapiens, SU-DHL-1, read-out: IC50 in cell proliferation assay): 0.008 µM | IC50 (134 cancer cell lines; Homo sapiens, SU-DHL-6, read-out: IC50 in cell proliferation assay): 24.1 µM | IC50 (134 cancer cell lines; Homo sapiens, SUP-T1, read-out: IC50 in cell proliferation assay): 23.2 µM | IC50 (134 cancer cell lines; Homo sapiens, SW48, read-out: IC50 in cell proliferation assay): 8.62 µM | IC50 (134 cancer cell lines; Homo sapiens, SW480, read-out: IC50 in cell proliferation assay): > 31.6 µM | IC50 (134 cancer cell lines; Homo sapiens, SW626, read-out: IC50 in cell proliferation assay): 8.56 µM | IC50 (134 cancer cell lines; Homo sapiens, SW780, read-out: IC50 in cell proliferation assay): 16 µM | IC50 (134 cancer cell lines; Homo sapiens, SW837, read-out: IC50 in cell proliferation assay): > 31.6 µM | IC50 (134 cancer cell lines; Homo sapiens, SW872, read-out: IC50 in cell proliferation assay): 6.65 µM | IC50 (134 cancer cell lines; Homo sapiens, SW900, read-out: IC50 in cell proliferation assay): 15.1 µM | IC50 (134 cancer cell lines; Homo sapiens, SW948, read-out: IC50 in cell proliferation assay): 17 µM | IC50 (134 cancer cell lines; Homo sapiens, SW982, read-out: IC50 in cell proliferation assay): 0.052 µM | IC50 (134 cancer cell lines; Homo sapiens, SW-620, read-out: IC50 in cell proliferation assay): 17 µM | IC50 (134 cancer cell lines; Homo sapiens, T98G, read-out: IC50 in cell proliferation assay): 11.4 µM | IC50 (134 cancer cell lines; Homo sapiens, TCC-SUP, read-out: IC50 in cell proliferation assay): > 31.6 µM | IC50 (134 cancer cell lines; Homo sapiens, THP-1, read-out: IC50 in cell proliferation assay): > 31.6 µM | IC50 (134 cancer cell lines; Homo sapiens, U2OS, read-out: IC50 in cell proliferation assay): 8.64 µM | IC50 (134 cancer cell lines; Homo sapiens, U-87 MG, read-out: IC50 in cell proliferation assay): > 31.6 µM | IC50 (134 cancer cell lines; Homo sapiens, U-118-MG, read-out: IC50 in cell proliferation assay): > 31.6 µM | IC50 (134 cancer cell lines; Homo sapiens, UMUC3, read-out: IC50 in cell proliferation assay): > 31.6 µM | IC50 (134 cancer cell lines; Hs766T, read-out: IC50 in cell proliferation assay): > 31.6 µM | IC50 (134 cancer cell lines; L-82, read-out: IC50 in cell proliferation assay): 0.00122 µM | IC50 (134 cancer cell lines; Rh30, read-out: IC50 in cell proliferation assay): 9.22 µM
